In patent US9790200B2, “Dihydroquinoline pyrazolyl compounds” (Hoffmann-La Roche Inc., priority 2015, dated 2017):

Legend:
human CYP11B1 = biological target: T1, human CYP11B1 (Homo sapiens, UniProt P15538); assay: G-402 cellular enzyme assay, human CYP11B1 (cortisol release, HTRF); type: cell-based; conditions: G-402 cells, 1 μM Deoxycortisol
T1 construct: The expression plasmids contains the ORF for either human/cyno CYP11B1 or CYP11B2; expressed in transfected cells
T1 sequence (P15538 25-503): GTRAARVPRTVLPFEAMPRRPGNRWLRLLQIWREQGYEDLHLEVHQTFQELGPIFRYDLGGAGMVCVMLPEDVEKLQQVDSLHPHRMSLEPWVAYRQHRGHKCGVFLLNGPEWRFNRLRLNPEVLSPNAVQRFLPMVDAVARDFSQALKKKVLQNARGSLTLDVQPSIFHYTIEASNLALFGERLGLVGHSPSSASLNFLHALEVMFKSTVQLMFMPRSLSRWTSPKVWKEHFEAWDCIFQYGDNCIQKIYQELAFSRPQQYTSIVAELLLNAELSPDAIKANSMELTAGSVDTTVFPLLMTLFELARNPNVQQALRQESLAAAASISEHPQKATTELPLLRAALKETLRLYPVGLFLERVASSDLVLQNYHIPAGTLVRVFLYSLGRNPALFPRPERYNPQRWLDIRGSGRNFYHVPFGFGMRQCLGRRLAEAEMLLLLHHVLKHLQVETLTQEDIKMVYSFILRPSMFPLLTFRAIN
Source text: Herein we identified the use of the G-402 cell line as a host cell to ectopically express (transiently or stably) enzymes of the CYP11 family. Specifically we developed stable G-402 cells expressing ectopically human CYP11B1, human CYP11B2, human CYP11A1, cynmolgus CYP11B1 or cynomolgus CYP11B2 enzyme activity. Importantly the identified cell line G-402 expresses co-factors (adrenodoxin and adrenodoxin reductase) important for the activity of the CYP11 family and no relevant enzyme activity of the CYP11 family (in comparison to H295R cells) was detected in these cells. Therefore the G-402 cell line is uniquely suited as a host cell for the ectopic expression of enzymes from the CYP11 family.
G-402 cells can be obtained from ATCC (CRL-1440) and were originally derived from a renal leiomyoblastoma.
The expression plasmids contains the ORF for either human/cyno CYP11B1 or CYP11B2 under the control of a suitable promoter (CMV-promoter) and a suitable resistance marker (neomycin). […] Individual cell-clones are then selected and assessed for displaying the desired enzymatic activity using 11-Deoxycorticosterone (Cyp11B2) or 11-Deoxycortisol (Cyp11B1) as a substrate. […]
[formula] wherein, A is the maximum y value, B is the EC50 factor determined using XLFit, C is the minimum y value and D is the slope value. […]

[1] = system: rat model of chronic kidney disease; conditions: cited from earlier work; for plasma aldosterone: FAD286: 4 weeks of treatment, spironolactone: 4 and 8 weeks of treatment; for angiotensin II and salt-stimulated PAI-1 mRNA expression in the aorta and the heart / renal effects of angiotensin II and high salt (albuminuria, azotemia, renovascular hypertrophy, glomerular injury, PAI-1, osteopontin mRNA, tubulointerstitial fibrosis): rat, in vivo
[2] = system: rats with experimental heart failure; conditions: rat, in vivo; cited from earlier work
[3] = system: patients with primary aldosteronism; conditions: cited from earlier work

For `CN1C(=O)CCc2c1ccc(-c1n[nH]cc1COC1CN(C(=O)c3cnn(C)c3)C1)c2F` [Example 66, 5-Fluoro-1-methyl-6-[4-[[1-(1-methylpyrazole-4-carbonyl)azetidin-3-yl]oxymethyl]-1H-pyrazol-3-yl]-3,4-dihydroquinolin-2-one], the EC50 (human CYP11B1) was greater than 30 nM.
For `N#Cc1ccc(C2CCCc3cncn32)cc1` (centres unmarked) [FAD286], the plasma aldosterone [1] is given as “reduced”, the “angiotensin II and salt-stimulated PAI-1 mRNA expression in the aorta and the heart” value [1] is given as “not” and the “renal effects of angiotensin II and high salt (albuminuria, azotemia, renovascular hypertrophy, glomerular injury, PAI-1, osteopontin mRNA, tubulointerstitial fibrosis)” value [1] is given as “prevented these renal effects”. The “blood pressure and cardiovascular function and structure” value [2] was “improved”.
For `CC(=O)S[C@@H]1CC2=CC(=O)CC[C@]2(C)[C@H]2CC[C@@]3(C)[C@@H](CC[C@@]34CCC(=O)O4)[C@H]12` [spironolactone], the plasma aldosterone [1] is listed as “increased”, the “angiotensin II and salt-stimulated PAI-1 mRNA expression in the aorta and the heart” value [1] is listed as “enhanced” and the “renal effects of angiotensin II and high salt (albuminuria, azotemia, renovascular hypertrophy, glomerular injury, PAI-1, osteopontin mRNA, tubulointerstitial fibrosis)” value [1] is listed as “prevented these renal effects”.
For `N#Cc1ccc([C@H]2CCc3cncn32)c(F)c1` [LCI699], the blood pressure ([3]; human, in vivo) is listed as “mildly decreased”, the hypokalemia ([3]; human, in vivo) is listed as “corrected” and the circulating aldosterone levels ([3]; orally active) is listed as “significantly lower”.
